One assay concerns P. aeruginosa MB447. Nature of the assay: MIC against XDR strain MB447. As to conditions: medium not stated. It is filed as cell-based, Pseudomonas aeruginosa. As for the experimental part: MIC assays of PPMOs were determined according to the Clinical and Laboratory Standards Institute (CLSI) broth microdilution method ([29]), using the method previously described ([14]). The assays were performed in 96-well tissue culture plates (Thermo Fisher Scientific, Waltham, MA). All reagents were analytical grade and were obtained from Sigma-Aldrich (St. Louis, MO), Acros Organics (Geel, Belgium), UT Southwestern Campus Pharmacy, or Thermo Fisher Scientific (Waltham, MA). Morpholinopropanesulfonic acid (MOPS) minimal medium was prepared as previously described ([30], [31]).

For assay [1], the system named is P. aeruginosa strain MB447. Nature of the assay: Acute pneumonia mouse model with XDR strain, survival. It is filed as in vivo, Pseudomonas aeruginosa in BALB/c mice. As to conditions: for survival at day 4: 15 mg/kg intratracheal at 15 min, then intranasal at 24 h (legend: 6 h); for Median survival: 15 mg/kg, two treatments, Kaplan-Meier.
Method: To test whether PPMOs retained in vivo activity in an XDR strain, we utilized the AcpP-RXR(5′) PPMO in the acute pneumonia model using XDR P. aeruginosa strain MB447, a carbapenem-resistant bloodstream isolate. […] Mice were infected intratracheally followed by intratracheal treatment 15 min postinfection with either 15 mg/kg of AcpP-RXR(5′), scrambled control PPMO (Scr), PBS, 15 mg/kg of meropenem, or 15 mg/kg of tobramycin, and the bacterial burden was determined at 24 h postinfection.
Mice were infected intratracheally with P. aeruginosa strain MB447 (∼10^7 CFU/mouse). (A) Mice were treated intratracheally 15 min postinfection with 15 mg/kg/24 h of AcpP-RXR(5′) and the corresponding scrambled PPMO, tobramycin, and meropenem and were euthanized at 24 h, and lung tissues were processed as previously described. All samples were plated for viable CFU on PIA. Each symbol represents the value for a single mouse. Error bars represent SEM. Statistical differences were determined using one-way ANOVA and indicated as follows: ****, P < 0.0001; **, P < 0.01; *, P < 0.05. (B) Mice were treated intratracheally 15 min postinfection and intranasally at 6 h postinfection (a total of two treatments) with the same compounds and doses. Mice were monitored for 4 days postinfection.
P. aeruginosa strains PA103, PA103 P1-lux, and MB447 were grown on Pseudomonas isolation agar (PIA) for 16 to 18 h at 37°C and suspended in PBS to an optical density at 600 nm (OD600) of 0.5, corresponding to ∼10^9 CFU/ml. Inocula were adjusted spectrophotometrically to obtain the desired sublethal challenge dose in a volume of 25 μl. Six- to 8-week-old female BALB/c mice (Jackson Laboratories, Bar Harbor, ME) were anesthetized by intraperitoneal injection of 0.2 ml of a mixture of ketamine (6.7 mg/ml) and xylazine (1.3 mg/ml). Mice were infected by noninvasive intratracheal instillation of dilutions of P. aeruginosa strain as indicated ([34]).
The subject of a further assay is P. aeruginosa PA103. Put plainly: Acute pneumonia mouse model, intraperitoneal PPMO alone or with tobramycin, survival. The format is in vivo, Pseudomonas aeruginosa in BALB/c mice. As to conditions: intraperitoneal at 6, 12 and 24 h; Kaplan-Meier. As for the experimental part: Mice were treated by intraperitoneal injection of RpsJ-RXR(3′) (15 mg/kg), tobramycin (15 mg/kg), scrambled PPMO (15 mg/kg) alone or in combination (scrambled PPMO plus tobramycin or RpsJ PPMO plus tobramycin) at 6, 12, and 24 h for a total of three treatments after intratracheal infection with a […] dose of P. aeruginosa PA103. Mice were monitored for up to 4 days postinfection. […] Mice treated with RpsJ-RXR(3′) or tobramycin had 50 to 60% increased survival compared to PBS or scrambled control, respectively.
FIG 4 PPMOs work in concert with traditional antibiotics to improve survival in acute lung model of infection. […] Mice were monitored for 4 days postinfection. Results are represented by Kaplan-Meier survival curves and were analyzed by log rank test (log rank test, RpsJ versus PBS, P < 0.001; RpsJ versus Scr, P < 0.05; RpsJ versus RpsJ plus tobramycin, P < 0.05; Scr versus Scr plus tobramycin, P = 0.1778. Median survival: PBS, 36 h; Scr, 48 h; RpsJ, tobramycin, and combination treatments, undefined). […]
Mice were infected as described above and treated either intraperitoneally or intranasally with 15 mg/kg/treatment of PPMO or corresponding controls as indicated. Animals were treated at 6, 12, or 24 h postinfection, with a total of three doses and were monitored for survival up to 4 days postinfection.

The subject of assay [2] is P. aeruginosa PAO1 biofilm. Nature of the assay: Established biofilm on MBEC pegs, crystal violet (total biomass). The format is cell-based, Pseudomonas aeruginosa. The conditions noted are these: PAO1, 24 h biofilm, dosed at 24, 32, 40 h, read at 48 h; tobramycin 0.625 µg/ml, piperacillin-tazobactam 0.25 µg/ml, PPMO 0.25 µM (legend 2.5 μM). On the procedure: We previously reported that treatment with PPMO alone was effective in both preventing and decreasing established P. aeruginosa biofilm in vitro ([14]). Here, we aimed to determine whether combining a PPMO with a traditional antibiotic (that also had minimal biofilm-inhibitory activity on its own) could enhance biofilm eradication compared to either drug alone. Biofilms were established in minimal biofilm eradication concentration (MBEC) plates by growing P. aeruginosa PAO1 at 37°C. At 24 h postinoculation, lids with established biofilm were moved to new 96-well plates containing fresh media with either antibiotic only (0.625 µg/ml tobramycin or 0.25 µg/ml piperacillin-tazobactam), PPMO only [0.25 µM either AcpP-RXR(3′) or RpsJ-RXR(3′)], or PPMO plus antibiotic as indicated. We hypothesized that the combination of antibiotics and PPMOs targeting a similar cellular process, such as bacterial cell wall (AcpP and piperacillin-tazobactam) or protein synthesis (RpsJ and tobramycin) would enhance biofilm eradication.
FIG 1 PPMOs in combination with traditional antibiotics display enhanced activity and reduce established P. aeruginosa strain PAO1 biofilm. […] Statistical differences were determined by one-way ANOVA and indicated as follows: ***, P < 0.0001; **, P < 0.001; *, P < 0.05; n.s., not significant. […]

Assay [3] relates to P. aeruginosa PAO1 biofilm. Put plainly: Established biofilm on MBEC pegs, viability (resazurin, CFU). It is filed as cell-based, Pseudomonas aeruginosa. The conditions noted are these: PAO1, 24 h biofilm, dosed at 24, 32, 40 h, read at 48 h; tobramycin 0.625 µg/ml, PPMO 0.25 µM (legend 2.5 μM). A general note: The colour change of resazurin is a common sign of viable cells or microbes.
Method: PAO1 biofilms were established on MBEC pegs for 24 h and then treated either with 0.625 μg/ml tobramycin, 0.25 μg/ml piperacillin/tazobactam (Pip/Tazo), 2.5 μM AcpP-RXR(3′), 2.5 μM RpsJ-RXR(3′) or with a combination of PPMO and antibiotic at 24, 32, and 40 h. […]
The viability and metabolic state of biofilm-associated cells were determined using resazurin dye ([17]). […] This time point was previously optimized based on the time needed for the untreated control cells to reach maximum fluorescence. The plates were read at an excitation of 530 nm and emission of 590 nm on a Synergy BioTek plate reader. Viable CFU from the biofilms were also determined by rinsing MBEC pegs in PBS three times to remove planktonic bacteria, followed by cutting the peg off the base with a hot scalpel and placing it in a 14 ml Falcon tube containing 1 ml PBS. […]

In the case of `C[C@@H](O)[C@H]1C(=O)N2C(C(=O)O)=C(S[C@@H]3CN[C@H](C(=O)N(C)C)C3)[C@H](C)[C@H]12` [meropenem], in the assay on P. aeruginosa MB447, the “MIC of strain MB447 against antibiotic” value turned out to be 32 µM. For the same molecule, in assay [1], the “survival at day 4” value was 0% and the Median survival came to 34 h.
As for `NC[C@H]1O[C@H](O[C@H]2[C@H](O)[C@@H](O[C@H]3O[C@H](CO)[C@@H](O)[C@H](N)[C@H]3O)[C@H](N)C[C@@H]2N)[C@H](N)C[C@@H]1O` [tobramycin], the Median survival result in the assay with P. aeruginosa PA103 is reported as “undefined”. In assay [2], the “reduction of established biofilm mass compared to untreated” value was found to be 50%. The “decrease of biofilm cell viability compared to no treatment” value in assay [3] came out at 50%. The “MIC of strain MB447 against antibiotic” value in the assay with P. aeruginosa MB447 is 8 µM. For the same molecule, in assay [1], the “survival at day 4” value is given as 67% and the Median survival entry is reported as “undefined”.
With piperacillin-tazobactam, the “reduction of established biofilm mass compared to untreated” value in assay [2] is reported as “no impact on established biofilm”.

For the origin of these results see PMC7844538, “Peptide-Conjugated Phosphorodiamidate Morpholino Oligomers Retain Activity against Multidrug-Resistant Pseudomonas aeruginosa In Vitro and In Vivo” (mBio, 2021).
